Laboratory results: ChEMBL document CHEMBL1201862, “PubChem BioAssay data set” (2004)
Structures can show the parent of a compound that is named as a salt. One block for each compound: values may come before it. Activity calls are given as the source filed them.

Legend:
[1] = molecular target: Glyceraldehyde-3-phosphate dehydrogenase (Homo sapiens, UniProt P04406)
HT-1080 = assay: HT1080 cell viability loss – fluorescence readout (AID 620); assay type: functional, cell-based; conditions: Homo sapiens
[2] = molecular target: Luciferin 4-monooxygenase (Photinus pyralis, UniProt P08659); assay: Counter Screen for Luciferase-based Assay Positives. [Related pubchem assays: 620, 618, 411 ]
[3] = molecular target: Lysosomal acid glucosylceramidase (Homo sapiens, UniProt P04062); assay: Dose response cell-based high throughput screening assay to identify enhancers of beta-glucosidase activity. [Related pubchem assays: 784 ]; assay type: functional
[4] = molecular target: T1, Short transient receptor potential channel 4 (Mus musculus, UniProt Q9QUQ5); assay: block of DAMGO-driven TRPC4 calcium entry – cell-based, HEK293 TRPC4/mu-opioid, Fluo-4 calcium, dose response (AID 434942); assay type: functional;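 further: potency of inhibitors blocking the TRPC4 calcium response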
T1 sequence (Q9QUQ5 whole entry): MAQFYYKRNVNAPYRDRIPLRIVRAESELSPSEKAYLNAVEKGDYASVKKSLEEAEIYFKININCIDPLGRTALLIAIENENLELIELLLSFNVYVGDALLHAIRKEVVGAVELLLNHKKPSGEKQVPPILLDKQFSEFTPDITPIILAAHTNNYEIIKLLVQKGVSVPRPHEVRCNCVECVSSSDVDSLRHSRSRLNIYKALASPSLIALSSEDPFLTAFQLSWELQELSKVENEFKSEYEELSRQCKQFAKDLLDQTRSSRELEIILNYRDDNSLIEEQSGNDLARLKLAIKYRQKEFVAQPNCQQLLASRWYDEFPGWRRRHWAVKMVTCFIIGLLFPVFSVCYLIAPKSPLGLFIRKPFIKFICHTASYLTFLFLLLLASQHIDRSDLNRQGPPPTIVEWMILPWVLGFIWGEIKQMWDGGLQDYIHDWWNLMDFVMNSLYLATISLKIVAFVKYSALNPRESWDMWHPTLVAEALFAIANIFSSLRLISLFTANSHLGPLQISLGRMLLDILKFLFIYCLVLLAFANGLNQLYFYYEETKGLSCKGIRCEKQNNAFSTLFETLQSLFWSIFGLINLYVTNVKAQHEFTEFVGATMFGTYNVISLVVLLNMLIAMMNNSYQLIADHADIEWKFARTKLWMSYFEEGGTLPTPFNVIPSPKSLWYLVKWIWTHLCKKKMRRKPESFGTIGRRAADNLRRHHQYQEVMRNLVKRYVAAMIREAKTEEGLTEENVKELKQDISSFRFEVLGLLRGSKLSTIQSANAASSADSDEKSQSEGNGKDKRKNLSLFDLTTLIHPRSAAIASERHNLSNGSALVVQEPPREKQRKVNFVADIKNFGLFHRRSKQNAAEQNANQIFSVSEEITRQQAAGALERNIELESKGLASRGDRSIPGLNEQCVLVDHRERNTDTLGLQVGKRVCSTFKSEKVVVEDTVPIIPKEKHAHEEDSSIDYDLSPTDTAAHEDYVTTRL

[5] = molecular target: T2, Neuropeptide Y receptor type 1 (Homo sapiens, UniProt P25929); assay type: functional;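 further: HEK293 cells with a CNG channel challenged with NPY then isoproterenol; potency as antagonist that reverses NPY suppression of cAMP signal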
T2 sequence (P25929 whole entry): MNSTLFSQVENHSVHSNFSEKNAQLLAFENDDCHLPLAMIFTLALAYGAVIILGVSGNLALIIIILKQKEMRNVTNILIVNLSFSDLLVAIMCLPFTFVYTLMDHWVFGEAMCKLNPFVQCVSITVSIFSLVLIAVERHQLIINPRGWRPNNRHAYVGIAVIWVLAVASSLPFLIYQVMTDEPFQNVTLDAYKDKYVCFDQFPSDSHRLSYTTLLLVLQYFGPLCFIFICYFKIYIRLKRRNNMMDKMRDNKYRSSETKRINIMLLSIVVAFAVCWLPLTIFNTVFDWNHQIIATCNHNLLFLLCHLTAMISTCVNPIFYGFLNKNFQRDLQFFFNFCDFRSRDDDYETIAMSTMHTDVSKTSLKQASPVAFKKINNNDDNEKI

[6] = molecular target: T3, Neuropeptide Y receptor type 2 (Homo sapiens, UniProt P49146); assay type: functional, cell-based;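 further: HEK293 cells expressing the receptor and a CNG channel; stimulus was NPY near EC95 followed by isoproterenol to raise cAMP; antagonist potency measured as restoring cAMP signal that NPY suppresses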
T3 sequence (P49146 whole entry): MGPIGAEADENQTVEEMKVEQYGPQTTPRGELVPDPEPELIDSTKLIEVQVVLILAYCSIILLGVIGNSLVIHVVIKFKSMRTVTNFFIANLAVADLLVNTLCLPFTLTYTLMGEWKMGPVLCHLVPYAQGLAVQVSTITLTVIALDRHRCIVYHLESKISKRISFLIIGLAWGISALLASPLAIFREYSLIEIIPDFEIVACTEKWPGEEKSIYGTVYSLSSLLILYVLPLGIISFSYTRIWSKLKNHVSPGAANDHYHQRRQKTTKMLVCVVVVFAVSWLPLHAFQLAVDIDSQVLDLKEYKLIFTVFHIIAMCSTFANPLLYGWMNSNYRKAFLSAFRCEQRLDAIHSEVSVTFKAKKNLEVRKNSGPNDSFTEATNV

Procathepsin L = Procathepsin L (Homo sapiens, UniProt P07711)
Aspartyl aminopeptidase = molecular target: T4, Aspartyl aminopeptidase (Plasmodium falciparum 3D7, UniProt Q8I2J3)
T4 sequence (Q8I2J3 whole entry): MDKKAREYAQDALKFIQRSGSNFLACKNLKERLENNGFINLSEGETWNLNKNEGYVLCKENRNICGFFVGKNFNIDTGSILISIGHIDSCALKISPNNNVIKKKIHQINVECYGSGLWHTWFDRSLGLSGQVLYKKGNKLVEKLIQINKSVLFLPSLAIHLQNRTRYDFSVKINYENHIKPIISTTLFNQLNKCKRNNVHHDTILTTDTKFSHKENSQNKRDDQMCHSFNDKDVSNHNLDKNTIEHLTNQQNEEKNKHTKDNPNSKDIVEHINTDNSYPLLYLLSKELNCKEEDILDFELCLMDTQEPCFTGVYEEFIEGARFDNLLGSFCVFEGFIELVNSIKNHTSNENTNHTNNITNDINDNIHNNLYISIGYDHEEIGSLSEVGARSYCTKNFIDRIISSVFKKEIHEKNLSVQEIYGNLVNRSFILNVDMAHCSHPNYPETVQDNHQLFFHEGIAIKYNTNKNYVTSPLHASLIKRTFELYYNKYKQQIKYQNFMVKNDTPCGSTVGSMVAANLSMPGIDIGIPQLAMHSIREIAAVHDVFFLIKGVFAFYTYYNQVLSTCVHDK

Mucolipin-3 = molecular target: T5, Mucolipin-3 (Homo sapiens, UniProt Q8TDD5); assay: Dose response cell-based high-throughput screening assay for agonists of the transient receptor potential channel ML3 (TRPML3). [Related pubchem assays: 1526, 1424, 1448 ]; assay type: functional
T5 sequence (Q8TDD5 whole entry): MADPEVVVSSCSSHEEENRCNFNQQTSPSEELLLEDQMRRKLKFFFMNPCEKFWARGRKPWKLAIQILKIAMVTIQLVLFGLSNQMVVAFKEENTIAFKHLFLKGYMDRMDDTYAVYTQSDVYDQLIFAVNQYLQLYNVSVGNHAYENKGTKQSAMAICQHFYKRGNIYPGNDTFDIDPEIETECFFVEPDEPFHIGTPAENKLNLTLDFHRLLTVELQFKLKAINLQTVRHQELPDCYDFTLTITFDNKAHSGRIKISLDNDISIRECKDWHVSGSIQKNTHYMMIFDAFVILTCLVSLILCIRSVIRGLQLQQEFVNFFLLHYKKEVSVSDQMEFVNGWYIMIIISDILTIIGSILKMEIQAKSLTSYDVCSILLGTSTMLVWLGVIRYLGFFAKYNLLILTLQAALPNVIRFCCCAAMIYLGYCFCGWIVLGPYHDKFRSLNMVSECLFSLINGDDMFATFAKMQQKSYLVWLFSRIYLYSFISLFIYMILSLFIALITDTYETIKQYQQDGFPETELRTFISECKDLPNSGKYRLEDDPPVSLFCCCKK

Ion channel NompC = Ion channel NompC (Danio rerio, UniProt Q7T1G6); assay: Fluorescence counterscreen assay for TRPML3 agonists: dose response cell-based high-throughput screening assay to identify agonists of the transient receptor potential channel N1 (TRPN1). [Related pubchem assays: 1526, 1424, 1448 ]; assay type: functional
Albumin = Albumin (Bos taurus, UniProt P02769); assay: Counterscreen for inhibitors of T-cell receptor (TCR)-CD3 interaction: Fluorescence-based biochemical high throughput dose response assay to identify inhibitors of T-cell receptor (TCR)-CD3 interaction using a TAMRA-labeled BSA probe.; assay type: functional
[7] = molecular target: T6, Rac GTPase-activating protein 1 (Homo sapiens, UniProt Q9H0H5); assay: blockers of MgcRacGAP-driven Rac1 GTP hydrolysis – biochemical, ADP Hunter fluorescence, primary and confirmatory, confirmation (AID 624330); assay type: functional
T6 sequence (Q9H0H5 whole entry): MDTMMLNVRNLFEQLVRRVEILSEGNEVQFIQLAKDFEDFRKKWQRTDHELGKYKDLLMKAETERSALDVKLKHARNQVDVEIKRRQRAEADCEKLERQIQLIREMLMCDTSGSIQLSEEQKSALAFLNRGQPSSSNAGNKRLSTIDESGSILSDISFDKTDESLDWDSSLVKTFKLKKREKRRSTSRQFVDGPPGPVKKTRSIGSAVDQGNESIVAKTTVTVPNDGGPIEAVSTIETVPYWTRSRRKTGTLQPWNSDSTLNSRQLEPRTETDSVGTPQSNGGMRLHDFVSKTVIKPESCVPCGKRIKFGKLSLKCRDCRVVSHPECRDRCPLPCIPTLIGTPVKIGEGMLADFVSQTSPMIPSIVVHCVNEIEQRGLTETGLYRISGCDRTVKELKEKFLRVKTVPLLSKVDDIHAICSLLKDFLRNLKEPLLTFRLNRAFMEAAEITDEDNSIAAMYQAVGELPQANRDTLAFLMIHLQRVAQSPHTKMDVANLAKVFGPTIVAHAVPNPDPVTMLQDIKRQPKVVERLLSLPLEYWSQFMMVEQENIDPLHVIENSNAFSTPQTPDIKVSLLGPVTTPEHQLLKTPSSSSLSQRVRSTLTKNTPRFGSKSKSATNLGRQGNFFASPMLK

[8] = molecular target: T7, Histone-lysine N-methyltransferase NSD2 (Homo sapiens, UniProt O96028); assay type: biochemical
T7 sequence (O96028 whole entry): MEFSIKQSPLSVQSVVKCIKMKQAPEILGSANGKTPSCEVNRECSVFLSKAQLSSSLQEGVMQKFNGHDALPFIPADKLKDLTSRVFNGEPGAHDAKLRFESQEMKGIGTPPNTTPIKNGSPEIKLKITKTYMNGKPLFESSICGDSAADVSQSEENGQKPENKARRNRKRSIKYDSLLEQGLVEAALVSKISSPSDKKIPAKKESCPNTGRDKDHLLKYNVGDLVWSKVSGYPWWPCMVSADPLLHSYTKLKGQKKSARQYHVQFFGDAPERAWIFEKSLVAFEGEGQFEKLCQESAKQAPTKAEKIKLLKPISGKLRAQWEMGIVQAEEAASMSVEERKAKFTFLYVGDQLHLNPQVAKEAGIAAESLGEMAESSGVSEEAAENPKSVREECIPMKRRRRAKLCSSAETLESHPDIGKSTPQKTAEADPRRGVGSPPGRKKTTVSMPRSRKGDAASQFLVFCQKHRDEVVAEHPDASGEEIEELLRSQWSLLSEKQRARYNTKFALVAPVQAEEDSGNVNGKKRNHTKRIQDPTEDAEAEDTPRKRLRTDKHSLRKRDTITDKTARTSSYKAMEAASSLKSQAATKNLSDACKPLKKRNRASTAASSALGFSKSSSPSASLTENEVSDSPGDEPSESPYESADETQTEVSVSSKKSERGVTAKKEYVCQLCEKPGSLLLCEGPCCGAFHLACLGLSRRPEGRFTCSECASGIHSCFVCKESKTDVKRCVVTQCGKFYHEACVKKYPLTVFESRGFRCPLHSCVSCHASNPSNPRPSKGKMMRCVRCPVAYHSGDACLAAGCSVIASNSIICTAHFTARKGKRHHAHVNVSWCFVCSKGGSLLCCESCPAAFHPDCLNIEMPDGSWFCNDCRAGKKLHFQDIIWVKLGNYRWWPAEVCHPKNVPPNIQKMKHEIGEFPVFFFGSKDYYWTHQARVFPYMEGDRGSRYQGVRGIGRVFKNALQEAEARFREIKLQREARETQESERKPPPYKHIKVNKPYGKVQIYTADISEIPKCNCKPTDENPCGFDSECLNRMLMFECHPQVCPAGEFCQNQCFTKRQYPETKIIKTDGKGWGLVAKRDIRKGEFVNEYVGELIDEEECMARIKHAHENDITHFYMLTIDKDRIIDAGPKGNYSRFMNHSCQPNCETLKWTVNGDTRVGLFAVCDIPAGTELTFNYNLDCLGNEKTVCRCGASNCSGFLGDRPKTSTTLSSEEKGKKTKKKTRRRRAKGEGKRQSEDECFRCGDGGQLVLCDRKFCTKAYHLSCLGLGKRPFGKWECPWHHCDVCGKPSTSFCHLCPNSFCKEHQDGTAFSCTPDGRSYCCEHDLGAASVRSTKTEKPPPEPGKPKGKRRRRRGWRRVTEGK

[9] = molecular target: Voltage-gated inwardly rectifying potassium channel KCNH2 (Homo sapiens, UniProt Q12809); conditions: Potency;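 further: confirmatory quantitative high-throughput screen measuring inhibition of hERG channel activity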
Chain of Voltage-gated inwardly rectifying potassium channel KCNH2 (Q12809 whole entry): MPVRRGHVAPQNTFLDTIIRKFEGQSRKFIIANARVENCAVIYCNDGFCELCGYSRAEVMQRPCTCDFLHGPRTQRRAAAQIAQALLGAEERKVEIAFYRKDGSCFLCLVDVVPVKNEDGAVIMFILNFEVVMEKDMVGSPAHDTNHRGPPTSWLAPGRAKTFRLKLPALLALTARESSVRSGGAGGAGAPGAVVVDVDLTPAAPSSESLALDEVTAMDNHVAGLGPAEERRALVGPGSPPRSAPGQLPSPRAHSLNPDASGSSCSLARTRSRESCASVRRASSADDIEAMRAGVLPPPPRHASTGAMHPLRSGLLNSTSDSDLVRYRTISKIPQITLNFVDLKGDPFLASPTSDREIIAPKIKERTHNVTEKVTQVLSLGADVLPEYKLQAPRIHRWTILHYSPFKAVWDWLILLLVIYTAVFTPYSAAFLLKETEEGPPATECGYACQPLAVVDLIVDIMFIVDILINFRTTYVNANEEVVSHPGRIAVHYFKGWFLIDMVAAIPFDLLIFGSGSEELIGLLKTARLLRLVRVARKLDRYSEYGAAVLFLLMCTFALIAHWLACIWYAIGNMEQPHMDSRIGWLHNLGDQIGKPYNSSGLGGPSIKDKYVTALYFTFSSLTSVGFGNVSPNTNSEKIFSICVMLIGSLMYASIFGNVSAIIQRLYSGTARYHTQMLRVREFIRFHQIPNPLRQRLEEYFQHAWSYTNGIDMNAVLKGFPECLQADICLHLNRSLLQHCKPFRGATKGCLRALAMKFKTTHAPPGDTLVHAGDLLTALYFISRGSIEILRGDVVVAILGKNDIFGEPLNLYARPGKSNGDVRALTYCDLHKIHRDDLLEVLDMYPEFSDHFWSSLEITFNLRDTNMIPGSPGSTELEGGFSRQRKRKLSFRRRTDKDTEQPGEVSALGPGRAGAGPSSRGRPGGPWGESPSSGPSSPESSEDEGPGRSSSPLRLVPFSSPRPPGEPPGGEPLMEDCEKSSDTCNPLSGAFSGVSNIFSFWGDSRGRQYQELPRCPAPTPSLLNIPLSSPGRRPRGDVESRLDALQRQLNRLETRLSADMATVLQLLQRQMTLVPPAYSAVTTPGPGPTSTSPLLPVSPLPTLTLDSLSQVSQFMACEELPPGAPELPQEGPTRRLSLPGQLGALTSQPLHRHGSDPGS

Chain of Procathepsin L (P07711 whole entry): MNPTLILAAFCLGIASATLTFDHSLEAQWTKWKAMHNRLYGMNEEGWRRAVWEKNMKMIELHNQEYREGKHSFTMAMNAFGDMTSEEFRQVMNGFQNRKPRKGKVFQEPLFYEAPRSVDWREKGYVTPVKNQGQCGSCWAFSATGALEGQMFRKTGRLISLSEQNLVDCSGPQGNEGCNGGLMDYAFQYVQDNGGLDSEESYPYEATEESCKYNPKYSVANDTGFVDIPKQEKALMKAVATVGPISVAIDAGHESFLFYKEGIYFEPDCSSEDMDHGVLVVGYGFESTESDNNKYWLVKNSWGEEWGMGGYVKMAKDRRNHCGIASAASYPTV
Chain of Ion channel NompC (Q7T1G6 whole entry): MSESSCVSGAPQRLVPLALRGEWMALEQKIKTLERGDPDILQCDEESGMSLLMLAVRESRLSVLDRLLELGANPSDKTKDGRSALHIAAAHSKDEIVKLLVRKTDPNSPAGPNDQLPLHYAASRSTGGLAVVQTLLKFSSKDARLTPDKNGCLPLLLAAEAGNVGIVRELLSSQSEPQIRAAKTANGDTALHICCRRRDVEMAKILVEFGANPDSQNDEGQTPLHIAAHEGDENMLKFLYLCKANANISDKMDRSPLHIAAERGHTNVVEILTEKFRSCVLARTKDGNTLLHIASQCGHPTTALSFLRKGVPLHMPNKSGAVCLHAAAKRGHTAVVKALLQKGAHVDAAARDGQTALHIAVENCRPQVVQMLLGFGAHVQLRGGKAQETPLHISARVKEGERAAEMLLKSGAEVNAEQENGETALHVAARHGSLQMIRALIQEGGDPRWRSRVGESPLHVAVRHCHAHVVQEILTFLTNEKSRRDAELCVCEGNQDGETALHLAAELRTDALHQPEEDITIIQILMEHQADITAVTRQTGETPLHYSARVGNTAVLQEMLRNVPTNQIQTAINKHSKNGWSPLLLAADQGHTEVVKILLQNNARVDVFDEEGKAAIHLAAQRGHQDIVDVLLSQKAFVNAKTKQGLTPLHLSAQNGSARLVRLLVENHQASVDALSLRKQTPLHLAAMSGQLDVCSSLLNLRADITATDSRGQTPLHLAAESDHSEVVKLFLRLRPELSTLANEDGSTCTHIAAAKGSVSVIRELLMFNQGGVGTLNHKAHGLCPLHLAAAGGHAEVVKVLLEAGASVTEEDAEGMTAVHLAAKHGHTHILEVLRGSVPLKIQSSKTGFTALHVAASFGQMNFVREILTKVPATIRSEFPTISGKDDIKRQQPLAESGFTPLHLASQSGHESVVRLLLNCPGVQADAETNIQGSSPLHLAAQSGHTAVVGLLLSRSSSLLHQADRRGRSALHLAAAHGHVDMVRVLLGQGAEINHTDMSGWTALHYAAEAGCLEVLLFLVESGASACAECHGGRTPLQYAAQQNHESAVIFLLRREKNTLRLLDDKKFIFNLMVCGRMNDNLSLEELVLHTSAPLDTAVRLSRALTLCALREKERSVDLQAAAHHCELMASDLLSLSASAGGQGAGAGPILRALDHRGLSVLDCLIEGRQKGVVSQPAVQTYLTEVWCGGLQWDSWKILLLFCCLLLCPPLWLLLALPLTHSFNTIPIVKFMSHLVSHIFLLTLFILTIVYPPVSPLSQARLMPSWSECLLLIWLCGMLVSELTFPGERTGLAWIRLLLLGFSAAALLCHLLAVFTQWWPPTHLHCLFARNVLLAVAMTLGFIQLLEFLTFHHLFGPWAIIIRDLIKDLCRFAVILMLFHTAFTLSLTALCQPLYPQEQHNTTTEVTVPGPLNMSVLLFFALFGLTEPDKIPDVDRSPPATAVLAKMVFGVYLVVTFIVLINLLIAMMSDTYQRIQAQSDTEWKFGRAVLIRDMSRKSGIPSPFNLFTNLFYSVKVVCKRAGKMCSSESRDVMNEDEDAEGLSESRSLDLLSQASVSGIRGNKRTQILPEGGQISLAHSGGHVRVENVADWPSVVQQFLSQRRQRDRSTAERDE
Chain of Luciferin 4-monooxygenase (P08659 whole entry): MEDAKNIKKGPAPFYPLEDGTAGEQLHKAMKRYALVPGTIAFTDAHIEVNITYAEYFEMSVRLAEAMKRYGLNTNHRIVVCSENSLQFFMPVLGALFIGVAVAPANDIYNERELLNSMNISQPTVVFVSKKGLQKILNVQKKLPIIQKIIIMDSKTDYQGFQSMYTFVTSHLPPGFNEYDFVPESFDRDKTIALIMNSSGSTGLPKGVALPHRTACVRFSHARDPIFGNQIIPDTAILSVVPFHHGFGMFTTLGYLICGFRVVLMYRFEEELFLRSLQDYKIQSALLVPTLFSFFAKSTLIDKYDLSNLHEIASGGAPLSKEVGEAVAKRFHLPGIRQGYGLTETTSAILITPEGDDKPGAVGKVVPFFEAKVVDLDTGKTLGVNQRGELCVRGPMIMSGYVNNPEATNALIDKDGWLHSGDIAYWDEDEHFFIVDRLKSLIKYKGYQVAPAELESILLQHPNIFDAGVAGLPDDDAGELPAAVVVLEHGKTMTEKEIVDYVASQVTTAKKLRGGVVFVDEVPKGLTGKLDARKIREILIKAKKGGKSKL
Chain of Lysosomal acid glucosylceramidase (P04062 whole entry): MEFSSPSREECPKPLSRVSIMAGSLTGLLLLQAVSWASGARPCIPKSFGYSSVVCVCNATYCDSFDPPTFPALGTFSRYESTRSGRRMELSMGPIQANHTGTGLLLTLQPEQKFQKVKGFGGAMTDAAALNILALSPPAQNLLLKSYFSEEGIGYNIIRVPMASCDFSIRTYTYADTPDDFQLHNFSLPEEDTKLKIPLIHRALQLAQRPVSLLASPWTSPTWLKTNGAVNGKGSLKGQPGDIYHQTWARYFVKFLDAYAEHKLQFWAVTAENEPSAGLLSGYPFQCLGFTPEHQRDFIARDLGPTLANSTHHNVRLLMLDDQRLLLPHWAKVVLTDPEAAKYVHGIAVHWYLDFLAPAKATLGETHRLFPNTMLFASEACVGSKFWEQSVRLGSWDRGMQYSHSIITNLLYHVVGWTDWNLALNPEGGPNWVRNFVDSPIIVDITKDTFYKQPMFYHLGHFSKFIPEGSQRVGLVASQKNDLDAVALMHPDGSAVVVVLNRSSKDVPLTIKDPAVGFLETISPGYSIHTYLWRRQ
Chain of Glyceraldehyde-3-phosphate dehydrogenase (P04406 whole entry): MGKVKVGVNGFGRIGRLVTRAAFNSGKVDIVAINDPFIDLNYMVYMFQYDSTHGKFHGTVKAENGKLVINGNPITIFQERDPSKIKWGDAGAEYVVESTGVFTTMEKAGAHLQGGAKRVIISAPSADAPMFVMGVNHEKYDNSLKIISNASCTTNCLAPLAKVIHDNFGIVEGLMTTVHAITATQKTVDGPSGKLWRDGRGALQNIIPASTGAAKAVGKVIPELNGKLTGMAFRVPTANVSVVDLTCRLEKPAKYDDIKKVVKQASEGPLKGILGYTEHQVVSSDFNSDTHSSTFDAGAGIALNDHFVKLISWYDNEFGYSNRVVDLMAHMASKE

- EC50 [3]: > 50 µM (not active)
Structure (SMILES): Cc1ccn2cc(C(=O)Nc3ccccc3N3CCOCC3)nc2c1

- EC50 [4]: 1.19 µM (active)
- IC50 [5]: 11.8 µM (not active)
- IC50 [6]: > 35 µM (not active)
Structure (SMILES): C=CCNc1nc(N2CCCC2)nc2ccccc12

- IC50 (Procathepsin L): > 59.6 µM (not active)
- IC50 (Aspartyl aminopeptidase): 2.37 µM (active)
Structure (SMILES): COC(=O)c1cc(C(=O)Nn2cnnc2)cc([N+](=O)[O-])c1

- EC50 (Mucolipin-3): 2.67 µM (active)
- EC50 (Ion channel NompC): > 29.9 µM (not active)
Structure (SMILES): COc1ccc(S(=O)(=O)N2CCCCCC2)cc1Br

Further lines, the compound ahead of its results:

Structure (SMILES): Cc1cc(C)c(C)c(S(=O)(=O)Nc2ccccc2C(=O)NCCCn2ccnc2)c1C
- IC50 [1]: > 100 µM (not active)
- EC50 (HT-1080): > 50 µM (not active)
- EC50 [2]: 61.1 µM (active)

Structure (SMILES): Cc1ccc(N=C2CCc3ccccc3N2)cc1
- EC50 [2]: 80.9 µM (active)

Structure (SMILES): COc1ccc2nc(C)cc(SCC(=O)N/N=C/c3ccc(O)c(O)c3)c2c1
- IC50 (Procathepsin L): > 59.6 µM (not active)
- IC50 (Albumin): > 94.1 µM (inactive)
- IC50 [7]: 23.9 µM (active)
- IC50 (Aspartyl aminopeptidase): 2.48 µM (active)
- AC50 [8]: > 20 µM (inactive)

Structure (SMILES): CC(C)(C)[C@]1(O)CCN2C[C@H]3c4ccccc4CCc4cccc(c43)[C@@H]2C1 [BUTACLAMOL HYDROCHLORIDE]
- EC50 (Mucolipin-3): 3.98 µM (active)
- EC50 (Ion channel NompC): > 29.9 µM (not active)
- AC50 [9]: 6.31 µM (active)
